A word on the inhibition: it is the change of the read-out against control, counted positive when it falls.

Where two headings read alike, the source gives them in different places. Where only a bound is given, the exact number is not on record here.

These results are taken from patent publication US9951040B2, “1,3,5 -triazine based PI3K inhibitors as anticancer agents and a process for the preparation thereof” (Council of Scientific and Industrial Research, priority 2014, dated 2018).

The target in the experiment is PI3K alpha (Homo sapiens, UniProt P42336). Nature of the experiment: PI3K-α assay (ADP-Glo enzyme inhibition). In kind it is biochemical. The following applies: at 500 nm. Here is the method:
Compounds were evaluated for their ability to inhibit class I PI3-kinase enzyme alpha as given below. PI3K-α Assay: PI3K alpha (diluted in 12.5 mM Glycine-NaOH (pH 8.5), 50 mM KCl, 2.5 mM MgCl2, 1 mM DTT, 0.05% CHAPS) is assayed in total volume of 20 ul containing 12.5 mM glycine-NaOH (pH 8.5), 50 mM KCl, 2.5 mM MgCl2, 1 mM DTT, 0.05% CHAPS, 0.01 mM ATP and 0.05 mM diC8 PIP2. The enzyme is assayed for 80 min after which 20 ul of ADP-Glo reagent is added. After a further incubation of 40 min, 40 ul of Kinase Detection Buffer is added. The assays are incubated for 40 min and then read on PerkinElmer Envision for 1 sec/well.

Where [1] appears, read: read-out: In vitro PI3K α % of inhibition.
[2] abbreviates: read-out: inhibition against PI3K alpha.

Sequence of PI3K alpha (P42336 whole entry, species assumed): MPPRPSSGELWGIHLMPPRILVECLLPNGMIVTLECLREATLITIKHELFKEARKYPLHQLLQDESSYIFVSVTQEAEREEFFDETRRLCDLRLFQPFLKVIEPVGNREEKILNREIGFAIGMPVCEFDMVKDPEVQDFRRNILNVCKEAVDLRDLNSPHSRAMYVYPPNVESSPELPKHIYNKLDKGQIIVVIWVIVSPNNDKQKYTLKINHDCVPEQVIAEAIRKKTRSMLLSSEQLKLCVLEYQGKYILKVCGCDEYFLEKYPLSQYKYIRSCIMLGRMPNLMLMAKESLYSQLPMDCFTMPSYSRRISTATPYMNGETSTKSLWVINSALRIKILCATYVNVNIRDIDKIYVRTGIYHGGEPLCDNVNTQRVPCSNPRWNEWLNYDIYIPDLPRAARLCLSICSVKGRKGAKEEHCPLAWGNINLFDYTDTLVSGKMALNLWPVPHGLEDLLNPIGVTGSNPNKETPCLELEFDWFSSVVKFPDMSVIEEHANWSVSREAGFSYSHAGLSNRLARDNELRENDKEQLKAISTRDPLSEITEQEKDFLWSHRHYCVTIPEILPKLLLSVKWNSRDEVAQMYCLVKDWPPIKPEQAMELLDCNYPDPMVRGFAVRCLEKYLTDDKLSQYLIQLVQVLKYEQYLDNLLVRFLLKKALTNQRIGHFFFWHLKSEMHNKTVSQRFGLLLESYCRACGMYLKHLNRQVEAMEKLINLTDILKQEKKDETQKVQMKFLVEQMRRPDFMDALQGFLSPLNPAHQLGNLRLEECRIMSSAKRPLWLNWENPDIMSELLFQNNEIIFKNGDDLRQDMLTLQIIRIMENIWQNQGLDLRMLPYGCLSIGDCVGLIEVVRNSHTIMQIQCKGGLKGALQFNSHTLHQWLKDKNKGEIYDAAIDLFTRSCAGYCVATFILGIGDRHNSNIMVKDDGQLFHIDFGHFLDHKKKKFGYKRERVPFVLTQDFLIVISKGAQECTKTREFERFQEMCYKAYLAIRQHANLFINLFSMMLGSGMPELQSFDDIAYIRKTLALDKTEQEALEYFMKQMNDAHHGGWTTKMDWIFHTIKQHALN
Sequence of PI3K alpha (P27986 whole entry partner, species assumed): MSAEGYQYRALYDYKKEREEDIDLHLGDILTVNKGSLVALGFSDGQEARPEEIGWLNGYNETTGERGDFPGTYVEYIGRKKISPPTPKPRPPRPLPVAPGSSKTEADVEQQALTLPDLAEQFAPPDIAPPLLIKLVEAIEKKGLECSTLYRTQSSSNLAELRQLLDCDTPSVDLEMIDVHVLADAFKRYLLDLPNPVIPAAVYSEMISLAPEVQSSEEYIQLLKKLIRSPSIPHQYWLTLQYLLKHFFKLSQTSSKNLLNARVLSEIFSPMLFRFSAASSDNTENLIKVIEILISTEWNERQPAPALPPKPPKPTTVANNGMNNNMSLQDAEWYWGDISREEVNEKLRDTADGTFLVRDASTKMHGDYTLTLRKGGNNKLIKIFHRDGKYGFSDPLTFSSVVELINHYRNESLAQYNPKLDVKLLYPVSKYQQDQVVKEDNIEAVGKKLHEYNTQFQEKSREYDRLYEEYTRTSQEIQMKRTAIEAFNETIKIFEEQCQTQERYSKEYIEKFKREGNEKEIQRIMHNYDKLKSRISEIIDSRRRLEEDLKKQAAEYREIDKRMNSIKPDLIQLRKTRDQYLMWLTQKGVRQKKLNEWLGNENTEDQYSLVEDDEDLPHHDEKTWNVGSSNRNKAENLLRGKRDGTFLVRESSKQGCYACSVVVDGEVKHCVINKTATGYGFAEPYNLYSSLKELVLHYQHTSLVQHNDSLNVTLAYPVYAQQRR

With `COc1cccc(NC2CCN(c3nc(N4CCOCC4)nc(-n4c(C(F)F)nc5ccccc54)n3)CC2)c1` [1B31, 1-(4-(2-(difluoromethyl)-1H-benzo[d]imidazol-1-yl)-6-morpholino-1,3,5-triazin-2-yl)-N-(3-methoxyphenyl)piperidin-4-amine], the inhibition at 0.5 µM under setting [1] is over 70% and the inhibition at 0.5 µM under setting [2] is over 70%.
With `Fc1ccc(NC2CCN(c3nc(N4CCOCC4)nc(-n4cnc5ccccc54)n3)CC2)cc1` [1B37, 1-(4-(1H-benzo[d]imidazol-1-yl)-6-morpholino-1,3,5-triazin-2-yl)-N-(4-fluorophenyl)piperidin-4-amine], the inhibition at 0.5 µM by setting is: under setting [1], over 70%; under setting [2], over 70%.
For `FC(F)(F)c1ccccc1OC1CCN(c2nc(N3CCOCC3)nc(-n3cnc4ccccc43)n2)CC1` [1B20, 4-(4-(1H-benzo[d]imidazol-1-yl)-6-(4-(2-(trifluoromethyl)phenoxy)piperidin-1-yl)-1,3,5-triazin-2-yl)morpholine], under setting [1], the inhibition at 0.5 µM is 50 to 70%.
On the same count and under the same terms, as for `Fc1ccc(NC2CCN(c3nc(N4CCOCC4)nc(-n4c(C(F)F)nc5ccccc54)n3)CC2)cc1` [1B21, 1-(4-(2-(difluoromethyl)-1H-benzo[d]imidazol-1-yl)-6-morpholino-1,3,5-triazin-2-yl)-N-(4-fluorophenyl)piperidin-4-amine], the figure is 50 to 70%.
Same read-out and setting: as for `FC(F)(F)c1ccccc1NC1CCN(c2nc(N3CCOCC3)nc(-n3cnc4ccccc43)n2)CC1` [1B40, 1-(4-(1H-benzo[d]imidazol-1-yl)-6-morpholino-1,3,5-triazin-2-yl)-N-(2-(trifluoromethyl)phenyl)piperidin-4-amine], the figure is 50 to 70%; as for `Fc1ccccc1OC1CCN(c2nc(N3CCOCC3)nc(-n3c(C(F)F)nc4ccccc43)n2)CC1` [1B9, 4-(4-(2-(difluoromethyl)-1H-benzo[d]imidazol-1-yl)-6-(4-(2-fluorophenoxy)piperidin-1-yl)-1,3,5-triazin-2-yl)morpholine], 50 to 70%.
Regarding `FC(F)c1cc2ccccc2n1-c1nc(N2CCOCC2)nc(N2CCC(Nc3ccc(C(F)(F)F)cc3)CC2)n1` [1B49, 1-(4-(2-(difluoromethyl)-1H-indol-1-yl)-6-morpholino-1,3,5-triazin-2-yl)-N-(4-(trifluoromethyl)phenyl)piperidin-4-amine], the inhibition at 0.5 µM under setting [1] is over 70% and the inhibition at 0.5 µM under setting [2] is over 70%.
For `FC(F)c1cc2ccccc2n1-c1nc(N2CCOCC2)nc(N2CCC(Nc3ccc(OC(F)(F)F)cc3)CC2)n1` [1B48, 1-(4-(2-(difluoromethyl)-1H-indol-1-yl)-6-morpholino-1,3,5-triazin-2-yl)-N-(4-(trifluoromethoxy)phenyl)piperidin-4-amine], the inhibition at 0.5 µM under setting [1] is 50 to 70%.
Still for that read-out and setting: as for `FC(F)c1nc2ccccc2n1-c1nc(N2CCOCC2)nc(N2CCC(Oc3ccc(OC(F)(F)F)cc3)CC2)n1` [1B3, 4-(4-(2-(difluoromethyl)-1H-benzo[d]imidazol-1-yl)-6-(4-(4-(trifluoromethoxy)phenoxy)piperidin-1-yl)-1,3,5-triazin-2-yl)morpholine], the figure is 50 to 70%; as for `CN(C(=O)C(F)(F)F)c1nc(N2CCOCC2)nc(N2CCC(Oc3ccccc3)CC2)n1` [1A11, 2,2,2-trifluoro-N-methyl-N-(4-morpholino-6-(4-phenoxypiperidin-1-yl)-1,3,5-triazin-2-yl)acetamide], 50 to 70%.
Consider `Fc1ccc(N(c2ccc(Br)cc2)C2CCN(c3nc(N4CCOCC4)nc(-n4c(C(F)F)nc5ccccc54)n3)CC2)cc1` [1B42, N-(4-bromophenyl)-1-(4-(2-(difluoromethyl)-1H-benzo[d]imidazol-1-yl)-6-morpholino-1,3,5-triazin-2-yl)-N-(4-fluorophenyl)piperidin-4-amine], for which the inhibition at 0.5 µM is, setting by setting: under setting [1], over 70%; under setting [2], over 70%.
Take `FC(F)c1cc2ccccc2n1-c1nc(N2CCOCC2)nc(N2CCC(Nc3ccc(Cl)cc3)CC2)n1` [1B50, N-(4-chlorophenyl)-1-(4-(2-(difluoromethyl)-1H-indol-1-yl)-6-morpholino-1,3,5-triazin-2-yl)piperidin-4-amine]: under setting [1], the inhibition at 0.5 µM fell in the range of 50 to 70%.
Take `O=C(N(c1ccc(F)cc1)c1nc(N2CCOCC2)nc(N2CCC(Oc3ccc(F)cc3)CC2)n1)C(F)(F)F` [1A6, 2,2,2-trifluoro-N-(4-(4-(4-fluorophenoxy)piperidin-1-yl)-6-morpholino-1,3,5-triazin-2-yl)-N-(4-fluorophenyl)acetamide]: the inhibition at 0.5 µM is over 70% under setting [1] and over 70% under setting [2].
Consider `Cc1ccc(OC2CCN(c3nc(N4CCOCC4)nc(-n4cnc5cc(F)ccc54)n3)CC2)cc1` [1B13, 4-(4-(5-fluoro-1H-benzo[d]imidazol-1-yl)-6-(4-(p-tolyloxy)piperidin-1-yl)-1,3,5-triazin-2-yl)morpholine], for which the inhibition at 0.5 µM under setting [1] lay within 50 to 70%.
Consider `FC(F)(F)Oc1ccc(OC2CCN(c3nc(N4CCOCC4)nc(N(c4ccccc4)c4ccccc4)n3)CC2)cc1` [1A20, 4-morpholino-N,N-diphenyl-6-(4-(4-(trifluoromethoxy)phenoxy)piperidin-1-yl)-1,3,5-triazin-2-amine], for which the inhibition at 0.5 µM under setting [1] was 50 to 70%.
The same measure, in the same setting: as for `Fc1ccc2c(c1)ncn2-c1nc(N2CCOCC2)nc(N2CCC(Oc3ccc(C(F)(F)F)cc3)CC2)n1` [1B14, 4-(4-(5-fluoro-1H-benzo[d]imidazol-1-yl)-6-(4-(4-(trifluoromethyl)phenoxy)piperidin-1-yl)-1,3,5-triazin-2-yl)morpholine], the figure is 50 to 70%.
Same read-out and setting: the result for `O=C(N(c1ccccc1)c1nc(N2CCOCC2)nc(N2CCC(Oc3ccc(C(F)(F)F)cc3)CC2)n1)C(F)(F)F` [1A7, 2,2,2-trifluoro-N-(4-morpholino-6-(4-(4-(trifluoromethyl)phenoxy)piperidin-1-yl)-1,3,5-triazin-2-yl)-N-phenylacetamide] reads 50 to 70%; that for `FC(F)(F)Oc1ccc(NC2CCN(c3nc(N4CCOCC4)nc(-n4cnc5ccccc54)n3)CC2)cc1` [1B36, 1-(4-(1H-benzo[d]imidazol-1-yl)-6-morpholino-1,3,5-triazin-2-yl)-N-(4-(trifluoromethoxy)phenyl)piperidin-4-amine], 50 to 70%.
`FC(F)(F)c1ccc(OC2CCN(c3nc(N4CCOCC4)nc(-n4cnc5ccccc54)n3)CC2)cc1` [1B15, 4-(4-(1H-benzo[d]imidazol-1-yl)-6-(4-(4-(trifluoromethyl)phenoxy)piperidin-1-yl)-1,3,5-triazin-2-yl)morpholine]: the inhibition at 0.5 µM runs as follows: under setting [1], over 70%; under setting [2], over 70%.
In the case of `Fc1ccc(NC2CCN(c3nc(N4CCOCC4)nc(-n4c(C(F)F)cc5ccccc54)n3)CC2)cc1` [1B46, 1-(4-(2-(difluoromethyl)-1H-indol-1-yl)-6-morpholino-1,3,5-triazin-2-yl)-N-(4-fluorophenyl)piperidin-4-amine], under setting [1], the inhibition at 0.5 µM was in the range of 50 to 70%.
The same measure, in the same setting: as for `O=C(N(C(=O)C(F)(F)F)c1nc(N2CCOCC2)nc(N2CCC(Oc3ccc(F)cc3)CC2)n1)C(F)(F)F` [1A13, 2,2,2-trifluoro-N-(4-(4-(4-fluorophenoxy)piperidin-1-yl)-6-morpholino-1,3,5-triazin-2-yl)-N-(2,2,2-trifluoroacetyl)acetamide], the figure is 50 to 70%; as for `Cc1ccc(NC2CCN(c3nc(N4CCOCC4)nc(-n4cnc5cc(F)ccc54)n3)CC2)cc1` [1B33, 1-(4-(5-fluoro-1H-benzo[d]imidazol-1-yl)-6-morpholino-1,3,5-triazin-2-yl)-N-(p-tolyl)piperidin-4-amine], 50 to 70%.
For `Fc1ccccc1OC1CCN(c2nc(N3CCOCC3)nc(-n3cnc4ccccc43)n2)CC1` [1B18, 4-(4-(1H-benzo[d]imidazol-1-yl)-6-(4-(2-fluorophenoxy)piperidin-1-yl)-1,3,5-triazin-2-yl)morpholine], the inhibition at 0.5 µM under setting [1] is over 70% and the inhibition at 0.5 µM under setting [2] was over 70%.
As to `O=C(N(C(=O)C(F)(F)F)c1nc(N2CCOCC2)nc(N2CCC(Oc3ccccc3F)CC2)n1)C(F)(F)F` [1A14, 2,2,2-trifluoro-N-(4-(4-(2-fluorophenoxy)piperidin-1-yl)-6-morpholino-1,3,5-triazin-2-yl)-N-(2,2,2-trifluoroacetyl)acetamide], the inhibition at 0.5 µM under setting [1] was over 70% and the inhibition at 0.5 µM under setting [2] was over 70%.
As to `c1ccc(OC2CCN(c3nc(N4CCOCC4)nc(N(c4ccccc4)c4ccccc4)n3)CC2)cc1` [1A18, 4-morpholino-6-(4-phenoxypiperidin-1-yl)-N,N-diphenyl-1,3,5-triazin-2-amine], under setting [1], the inhibition at 0.5 µM is 50 to 70%.
Take `COc1ccc(NC2CCN(c3nc(N4CCOCC4)nc(-n4c(C(F)F)cc5ccccc54)n3)CC2)cc1` [1B47, 1-(4-(2-(difluoromethyl)-1H-indol-1-yl)-6-morpholino-1,3,5-triazin-2-yl)-N-(4-methoxyphenyl)piperidin-4-amine]: the inhibition at 0.5 µM is over 70% under setting [1] and over 70% under setting [2].
In the case of `CN(c1ccccc1)c1nc(N2CCOCC2)nc(N2CCC(Oc3ccc(F)cc3)CC2)n1` [1A1, 4-(4-(4-fluorophenoxy)piperidin-1-yl)-N-methyl-6-morpholino-N-phenyl-1,3,5-triazin-2-amine], the inhibition at 0.5 µM under setting [1] is 50 to 70%.
With `CN(C(=O)C(F)(F)F)c1nc(N2CCOCC2)nc(N2CCC(Oc3ccc(F)cc3)CC2)n1` [1A15, 2,2,2-trifluoro-N-(4-(4-(4-fluorophenoxy)piperidin-1-yl)-6-morpholino-1,3,5-triazin-2-yl)-N-methylacetamide], the inhibition at 0.5 µM under setting [1] was over 70% and the inhibition at 0.5 µM under setting [2] is over 70%.
